In patent publication US20250017998A1, “SP-8356, EMODIN, AND IT603 ENHANCE BEIGE ADIPOCYTE ACTIVITY AND ALLEVIATE OBESITY AND DIABETES VIA UNCOUPLING PROTEIN 1 (UCP1)-INDEPENDENT MECHANISM” (The Chinese University of Hong Kong, priority 2023, published 2025):

Experiments:
LETMD1 [1] = test: RNA-seq of LETMD1 mRNA in hiPSC-derived beige adipocytes; assay type: cell-based, human; conditions: 0.1 μM, 24 h, RNA sequencing (FIG. 1B)
Method: (§1) FIGS. 1A-1C. Generation and characterization of the LETMD1-tdTomato reporter hiPSC. (FIG. 1A) Schematic illustration of the knock-in design for the LETMD1-tdTomato reporter hiPSCs. (FIG. 1B) hiPSCs were differentiated into beige adipocytes and treated with β3 adrenergic receptor (β3-AR) agonist Mirabegron (0.1 μM) for 24 h and subjected to RNA-seq. The fold change of LETMD1 and its analogue LETM1 were plotted. (FIG. 1C) Representative images of tdTomato fluorescence intensity in LETMD1 reporter hiPSC-derived beige adipocytes treated with or without Mirabegron (0.1 μM) for 24 h.
A total of 20 days was required for hiPSC differentiation into beige adipocytes. We used BMP4 (10 ng/mL) and ActivinA (25 ng/mL) from day 0 to day 4 to induce mesodermal differentiation in the first stage. We then induce mesodermal progenitors to differentiate into adipocyte progenitors with insulin ([…]), isobutylmethylxanthine (IBMX) (500 μmol/L), dexamethasone (1 μmol/L), and indomethacin (50 μmol/L) from day 4 to day 10. […]
(§2) To monitor the endogenous LETMD1 expression in human iPSCs with ease, we generated a fluorescent protein-based reporter human iPS cell line using a CRISPR/Cas9-mediated knock-in (KI) system (FIG. 1A). […] This cell line enables us to monitor the endogenous expression of LETMD1 in a high-throughput manner using the red fluorescence intensity as a surrogate.

LETMD1 [2] = test: LETMD1-tdTomato reporter hiPSC-derived beige adipocytes, red fluorescence; assay type: cell-based, human; conditions: 0.1 μM, 24 h, LETMD1 reporter hiPSC-derived beige adipocytes (FIG. 1C)
Method: as §1
A total of 20 days was required for hiPSC differentiation into beige adipocytes. […]
LETMD1 reporter hiPSCs were plated in the 96-well plates and differentiated into beige adipocytes. […] After that, the red fluorescent signals were quantified by the ThermoFisher (Waltham, MA) Varioskan Multimode Microplate Reader. […] measurement for each compound was normalized to the vehicle control group.
as §2

[3] = system: WT human beige adipocytes; test: Seahorse Mitochondrial Stress Test, oxygen consumption rate in WT human beige adipocytes; assay type: cell-based; conditions: 1 μM, 24 h, WT hiPSC-derived beige adipocytes, vs DMSO (FIGS. 2A-2C)
Method: (§3) FIGS. 2A-2F. SP-8356, emodin, and IT603 increase energy expenditure in human beige adipocytes in a UCP1-independent manner. WT or UCP1 knockout hiPSCs were differentiated to beige adipocytes followed by treatment with SP-8356 (1 μM), Emodin (1 μM), and IT603 (1 μM) for 24 h, respectively. DMSO was used as the vehicle control. The oxygen consumption rate (OCR) was examined by the Seahorse Mitochondrial Stress Test assay. (FIGS. 2A-2C) OCR in WT human beige adipocytes treated with SP-8356, Emodin, and IT603, respectively. (FIGS. 2D-2F) OCR in UCP1 knockout human beige adipocytes treated with SP-8356, Emodin, and IT603, respectively. *p<0.05, **p<0.01. A total of 20 days was required for hiPSC differentiation into beige adipocytes. We used BMP4 (10 ng/mL) and ActivinA (25 ng/mL) from day 0 to day 4 to induce mesodermal differentiation in the first stage. We then induce mesodermal progenitors to differentiate into adipocyte progenitors with insulin ([…]), isobutylmethylxanthine (IBMX) (500 μmol/L), dexamethasone (1 μmol/L), and indomethacin (50 μmol/L) from day 4 to day 10. Eventually, mature beige adipocytes will be formed by insulin (1 μg/mL) induction on day 10 to 20. […] were plated in the XF96 plates (Agilent Technologies, Inc., Santa Clara, CA) and differentiated into the beige adipocytes. The XF Cell Mito Stress Test Kit (Seahorse Bioscience, 103015-100) was used to perform the assay by following the manufacturer's instructions.

[4] = system: UCP1 knockout human beige adipocytes; test: Seahorse Mitochondrial Stress Test, oxygen consumption rate in UCP1 knockout human beige adipocytes; assay type: cell-based; conditions: 1 μM, 24 h, UCP1 knockout hiPSC-derived beige adipocytes, vs DMSO (FIGS. 2D-2F)
Method: as §3

SMILES | mRNA level of LETMD1 (LETMD1 [1]) | density of tdTomato fluorescent protein (LETMD1 [2]) | oxygen consumption rate (OCR) [3] | oxygen consumption rate (OCR) [4]
Nc1nc(CC(=O)Nc2ccc(CCNC[C@H](O)c3ccccc3)cc2)cs1 [Mirabegron] | significantly increased | increased significantly | – | –
COc1cc(Br)cc(/C=C2/NC(=S)NC2=O)c1O [IT603] | – | – | showed most significant capacity to elevate the OCR | enhanced the OCR
COc1cc(/C=C/C2=CC(=O)[C@H]3C[C@@H]2C3(C)C)cc(O)c1O [SP-8356] | – | – | showed most significant capacity to elevate the OCR | enhanced the OCR
Cc1cc(O)c2c(c1)C(=O)c1cc(O)cc(O)c1C2=O [emodin] | – | – | showed most significant capacity to elevate the OCR | enhanced the OCR
